Calls of active or inactive are those of the source.
Tests used:
[1] = reduction of Shn3 3'UTR-driven luciferase in osteoblasts – cell-based, Clone20 osteoblasts, firefly luciferase, cherry-picked, dose response (AID 624132); type: functional;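 also: firefly luciferase luminescence from reporter carrying the Shn3 3'UTR in osteoblasts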
INS1 = assay: INS-1E survival protection against cytokine death – cell-based, luminescence, retest, dose response (AID 449756); type: functional; conditions: Rattus norvegicus;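 also: cell death triggered by IL-1 beta plus TNF-alpha plus IFN-gamma mixture; protective hits raise ATP signal compared with cytokine alone wells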
[2] = non-specific 3'UTR reporter inhibition in Clone20-Shn3RL – cell-based, Renilla luciferase, cherry-picked, counter-screen for Shn3 inhibitor project, dose response (AID 624133); type: functional
[3] = NIH3T3 cell viability loss – ATP luminescence, mouse fibroblasts, counter-screen, dose response (AID 2010); type: functional, cell-based;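 also: cells exposed to compound for about 90 hours before reading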
HEK293 [4] = assay: inhibition of NOD1-driven NF-kB reporter – cell-based, luminescence, uHTS, primary screen (AID 1578); type: functional; conditions: Homo sapiens
[5] = loss of viability in HepG2 cells – cell-based, CellTiter-Glo, cherry-picked, cytotoxicity control for Shn3 inhibitor project, dose response (AID 624134); type: functional
[6] = decrease of insulin promoter-GFP reporter – imaging, high-content screening, mouse beta cells (AID 1628); type: functional; conditions: MIN6
HEK293 [7] = assay: NOD2 signaling inhibitors in MDP-stimulated cells, cell-based, uHTS, luminescence (AID 2001); type: functional; conditions: Homo sapiens
HEK293 [8] = assay: cells; type: functional, cell-based; conditions: Homo sapiens
HEK293 [9] = assay: cells; type: functional, cell-based; conditions: Homo sapiens; remark: listed apart in the source
[10] = MIN6 cell viability loss – mouse insulinoma, cytotoxicity control, dose response (AID 2122); type: functional;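 also: confirmatory high-throughput counterscreen run to flag cytotoxic compounds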
[11] = Trypanosoma cruzi growth suppression in host cells – NIH3T3 host cells, beta-gal luminescence, confirmation (AID 2044); type: functional, cell-based;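 also: intracellular parasites grown in NIH/3T3 mouse fibroblasts as host cells; luminescent beta-galactosidase reporter signal from transgenic T. cruzi replicating inside host cells; inhibitors lower the luminescence signal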
ORF 73 = ORF 73 (Human herpesvirus 8, UniProt O40947); assay: KSHV LANA DNA-binding disruption – biochemical, fluorescence polarization, cherry-picked samples, dose response (AID 504725); set-up: species or system Human gammaherpesvirus 8;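 also: fluorescence polarization of a labeled DNA duplex reporting LANA DNA binding; potency is for inhibitors that block LANA binding to the DNA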
Chain of ORF 73 (O40947 whole entry): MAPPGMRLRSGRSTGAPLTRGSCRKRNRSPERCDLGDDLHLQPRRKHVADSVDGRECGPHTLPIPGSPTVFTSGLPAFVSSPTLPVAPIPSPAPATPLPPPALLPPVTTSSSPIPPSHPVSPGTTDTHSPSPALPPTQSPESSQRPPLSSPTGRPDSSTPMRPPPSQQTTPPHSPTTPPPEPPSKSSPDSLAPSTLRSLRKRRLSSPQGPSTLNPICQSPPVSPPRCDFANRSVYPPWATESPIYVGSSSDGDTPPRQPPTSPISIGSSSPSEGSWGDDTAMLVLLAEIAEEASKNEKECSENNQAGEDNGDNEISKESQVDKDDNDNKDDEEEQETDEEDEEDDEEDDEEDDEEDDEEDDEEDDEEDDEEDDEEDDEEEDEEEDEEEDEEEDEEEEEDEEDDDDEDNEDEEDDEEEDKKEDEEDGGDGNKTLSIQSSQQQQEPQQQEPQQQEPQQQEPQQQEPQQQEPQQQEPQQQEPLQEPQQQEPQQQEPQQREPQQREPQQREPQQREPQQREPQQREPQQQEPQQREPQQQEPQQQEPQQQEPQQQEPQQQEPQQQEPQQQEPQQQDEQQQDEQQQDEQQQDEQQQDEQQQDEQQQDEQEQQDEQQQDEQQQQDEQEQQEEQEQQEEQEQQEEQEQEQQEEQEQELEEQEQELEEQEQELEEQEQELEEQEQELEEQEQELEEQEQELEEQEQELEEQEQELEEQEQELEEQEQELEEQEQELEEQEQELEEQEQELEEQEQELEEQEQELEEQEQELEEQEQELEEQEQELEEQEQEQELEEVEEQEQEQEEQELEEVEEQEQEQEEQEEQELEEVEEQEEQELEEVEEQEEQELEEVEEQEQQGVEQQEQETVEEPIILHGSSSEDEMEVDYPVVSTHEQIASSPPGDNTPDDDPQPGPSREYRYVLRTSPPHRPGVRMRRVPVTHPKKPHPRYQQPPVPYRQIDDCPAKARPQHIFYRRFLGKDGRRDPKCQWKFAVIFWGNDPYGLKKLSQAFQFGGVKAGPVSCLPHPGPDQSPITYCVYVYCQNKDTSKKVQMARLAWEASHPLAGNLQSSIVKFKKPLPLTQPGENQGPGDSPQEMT

[12] = viability loss in HeLa cells – cytotoxicity control for MgcRacGAP inhibitor project, dose response (AID 624300); type: functional
[13] = biological target: SWI/SNF-related matrix-associated actin-dependent regulator of chromatin subfamily A member 2 (Homo sapiens, UniProt P51531); assay: Luminescence-based cell-based high throughput dose response assay to identify activators of the function of SWI/SNF related, matrix associated, actin dependent regulator of chromatin, subfamily a, member 2 (SMARCA2, BRM).; type: functional
Chain of SWI/SNF-related matrix-associated actin-dependent regulator of chromatin subfamily A member 2 (P51531 whole entry): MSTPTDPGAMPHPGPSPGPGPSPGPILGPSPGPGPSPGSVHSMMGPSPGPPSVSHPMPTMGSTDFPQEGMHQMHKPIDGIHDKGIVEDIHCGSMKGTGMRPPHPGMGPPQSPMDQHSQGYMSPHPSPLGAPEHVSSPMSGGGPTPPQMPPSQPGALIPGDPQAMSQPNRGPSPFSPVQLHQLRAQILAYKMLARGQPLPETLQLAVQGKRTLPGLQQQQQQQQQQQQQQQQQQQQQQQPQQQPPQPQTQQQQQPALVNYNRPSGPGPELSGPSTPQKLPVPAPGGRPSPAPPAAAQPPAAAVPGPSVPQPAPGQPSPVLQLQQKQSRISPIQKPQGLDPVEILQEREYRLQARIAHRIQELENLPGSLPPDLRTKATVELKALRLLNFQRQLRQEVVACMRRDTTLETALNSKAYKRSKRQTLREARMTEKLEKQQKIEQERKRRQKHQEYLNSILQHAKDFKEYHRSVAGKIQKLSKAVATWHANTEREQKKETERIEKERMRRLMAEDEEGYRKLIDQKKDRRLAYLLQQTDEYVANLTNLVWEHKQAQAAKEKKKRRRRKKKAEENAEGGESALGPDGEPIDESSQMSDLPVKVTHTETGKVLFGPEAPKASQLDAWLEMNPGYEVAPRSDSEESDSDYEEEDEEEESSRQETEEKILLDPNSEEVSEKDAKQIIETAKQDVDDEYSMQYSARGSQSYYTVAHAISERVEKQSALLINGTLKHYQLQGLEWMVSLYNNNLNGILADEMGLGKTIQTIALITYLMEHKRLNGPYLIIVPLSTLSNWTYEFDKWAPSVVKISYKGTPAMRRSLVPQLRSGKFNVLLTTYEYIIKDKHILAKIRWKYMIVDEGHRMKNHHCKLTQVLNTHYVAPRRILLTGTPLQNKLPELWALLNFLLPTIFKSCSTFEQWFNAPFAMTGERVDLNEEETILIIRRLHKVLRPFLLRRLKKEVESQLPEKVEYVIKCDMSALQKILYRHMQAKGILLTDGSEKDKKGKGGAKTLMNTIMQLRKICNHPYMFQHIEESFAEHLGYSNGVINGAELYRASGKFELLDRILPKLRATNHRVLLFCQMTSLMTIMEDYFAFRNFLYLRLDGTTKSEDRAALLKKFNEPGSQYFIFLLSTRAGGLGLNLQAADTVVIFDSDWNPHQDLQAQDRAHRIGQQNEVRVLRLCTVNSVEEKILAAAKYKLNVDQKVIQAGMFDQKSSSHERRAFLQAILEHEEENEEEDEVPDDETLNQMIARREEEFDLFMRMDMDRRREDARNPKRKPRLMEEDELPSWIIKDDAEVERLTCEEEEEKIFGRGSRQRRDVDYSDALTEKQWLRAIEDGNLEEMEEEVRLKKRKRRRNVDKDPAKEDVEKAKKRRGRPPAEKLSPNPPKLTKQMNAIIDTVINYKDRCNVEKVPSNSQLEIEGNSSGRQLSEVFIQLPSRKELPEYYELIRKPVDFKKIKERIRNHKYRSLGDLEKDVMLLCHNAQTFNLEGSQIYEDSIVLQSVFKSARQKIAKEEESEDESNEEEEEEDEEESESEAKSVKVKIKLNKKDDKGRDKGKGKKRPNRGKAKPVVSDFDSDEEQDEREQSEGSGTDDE

[14] = biological target: T1, Rac GTPase-activating protein 1 (Homo sapiens, UniProt Q9H0H5); assay: blockers of MgcRacGAP-driven Rac1 GTP hydrolysis – biochemical, ADP Hunter fluorescence, primary and confirmatory, confirmation (AID 624330); type: functional
T1 sequence (Q9H0H5 whole entry): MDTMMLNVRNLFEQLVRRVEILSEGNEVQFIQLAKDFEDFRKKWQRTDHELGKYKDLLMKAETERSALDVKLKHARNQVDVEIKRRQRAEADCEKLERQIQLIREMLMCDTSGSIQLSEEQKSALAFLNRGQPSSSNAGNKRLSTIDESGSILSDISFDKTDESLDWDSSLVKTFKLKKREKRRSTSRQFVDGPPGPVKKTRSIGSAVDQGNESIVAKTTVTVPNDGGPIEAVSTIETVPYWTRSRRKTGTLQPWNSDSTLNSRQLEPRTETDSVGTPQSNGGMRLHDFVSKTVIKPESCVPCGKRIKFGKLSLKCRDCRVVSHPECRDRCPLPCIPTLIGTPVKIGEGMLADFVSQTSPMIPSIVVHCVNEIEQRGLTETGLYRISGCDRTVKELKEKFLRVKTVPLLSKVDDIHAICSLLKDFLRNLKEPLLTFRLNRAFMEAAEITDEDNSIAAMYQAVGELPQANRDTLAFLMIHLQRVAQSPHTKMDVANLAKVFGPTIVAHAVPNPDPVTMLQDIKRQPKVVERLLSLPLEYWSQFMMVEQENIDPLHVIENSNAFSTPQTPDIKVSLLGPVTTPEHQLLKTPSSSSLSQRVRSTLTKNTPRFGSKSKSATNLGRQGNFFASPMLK

[15] = Counterscreen for activators of the function of SWI/SNF related, matrix associated, actin dependent regulator of chromatin, subfamily a, member 2 (SMARCA2, BRM): Luminescence-based cell-based high throughput dose response assay to identify non-selective compounds using the VP16 reporter assay.; type: functional
HeLa = assay: viability loss in HeLa cells – cell-based, 24 h, cherry-picked samples, cytotoxicity control, dose response (AID 504726); type: functional; conditions: Homo sapiens;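 also: potency for cytotoxicity as loss of luminescence signal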
HEK293 [16] = assay: cells; conditions: Homo sapiens
HEK293 [17] = assay: cells; conditions: Homo sapiens; remark: listed apart in the source
[18] = inhibition of ARNT PAS-B/TACC3 complex formation – biochemical, AlphaScreen, cherry-picked samples, confirmation (AID 651703); type: functional, Homo sapiens;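 also: His-tagged ARNT PAS-B domain paired with GST-TACC3 E629A dimer coactivator fragment; potency of inhibitors that break up the complex and lower AlphaScreen signal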
Keap1/Nrf2 = Keap1/Nrf2 (Homo sapiens, UniProt Q14145); assay: disruptors of Keap1 binding to Nrf2 peptide – biochemical, fluorescence polarization, cherry-picked samples, dose response (AID 588683)
[19] = biological target: T2, Tyrosine-protein phosphatase non-receptor type 7 (Homo sapiens, UniProt P35236); assay: redox-active compounds inhibiting HePTP phosphatase – biochemical, fluorescence, mechanism study (AID 2068); type: functional
T2 sequence (P35236 whole entry): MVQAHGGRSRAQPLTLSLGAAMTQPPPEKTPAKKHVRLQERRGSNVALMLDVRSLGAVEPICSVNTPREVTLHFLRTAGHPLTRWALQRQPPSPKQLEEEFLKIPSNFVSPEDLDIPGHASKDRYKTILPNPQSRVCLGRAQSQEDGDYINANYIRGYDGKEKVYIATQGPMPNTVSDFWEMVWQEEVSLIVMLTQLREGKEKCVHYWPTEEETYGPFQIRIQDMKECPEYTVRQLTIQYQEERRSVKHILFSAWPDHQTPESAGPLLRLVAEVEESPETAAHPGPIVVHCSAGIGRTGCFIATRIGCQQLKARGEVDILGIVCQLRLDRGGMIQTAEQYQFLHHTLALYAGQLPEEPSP

[20] = biological target: Dual specificity protein phosphatase 6 (Rattus norvegicus, UniProt Q64346); type: functional;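 also: confirmatory in vitro dose-response testing of MKP-3 inhibition; recombinant His-tagged MKP-3 made in E. coli BL21 with OMFP substrate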
Chain of Dual specificity protein phosphatase 6 (Q64346 whole entry): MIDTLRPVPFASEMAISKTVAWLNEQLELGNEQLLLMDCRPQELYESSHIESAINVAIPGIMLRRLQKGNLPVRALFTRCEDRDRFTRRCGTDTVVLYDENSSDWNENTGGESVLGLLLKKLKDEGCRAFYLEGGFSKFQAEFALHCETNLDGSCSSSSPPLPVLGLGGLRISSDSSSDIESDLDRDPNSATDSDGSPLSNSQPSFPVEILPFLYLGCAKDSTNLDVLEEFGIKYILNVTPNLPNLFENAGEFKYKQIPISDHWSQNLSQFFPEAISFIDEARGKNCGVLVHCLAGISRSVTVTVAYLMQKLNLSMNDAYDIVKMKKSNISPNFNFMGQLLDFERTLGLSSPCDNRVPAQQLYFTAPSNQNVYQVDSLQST

Jurkat = assay: blockers of NF-kB activation in T cells – Jurkat, luciferase reporter, luminescence, B- and T-cell, dose response (AID 489004); type: functional, cell-based; conditions: Homo sapiens;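 also: NF-kB luciferase reporter Jurkat cells stimulated with PMA plus ionomycin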
[21] = HEK-293T viability loss, compound-treated – cell-based, uHTS hits, cytotoxicity control for B/T-cell NF-kB inhibitor project, dose response (AID 489019); type: functional;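 also: IC50 reflects cytotoxicity as loss of cell viability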
[22] = biological target: T3, Corticotropin-releasing factor receptor 2/Corticotropin-releasing factor-binding protein (Homo sapiens, UniProt P24387+Q13324); assay: Dose Response confirmation of uHTS hits for small molecule antagonists of the CRF-binding protein and CRF-R2 receptor complex.; type: functional; conditions: read-out: IC50_Mean
T3 sequence (Q13324 whole entry): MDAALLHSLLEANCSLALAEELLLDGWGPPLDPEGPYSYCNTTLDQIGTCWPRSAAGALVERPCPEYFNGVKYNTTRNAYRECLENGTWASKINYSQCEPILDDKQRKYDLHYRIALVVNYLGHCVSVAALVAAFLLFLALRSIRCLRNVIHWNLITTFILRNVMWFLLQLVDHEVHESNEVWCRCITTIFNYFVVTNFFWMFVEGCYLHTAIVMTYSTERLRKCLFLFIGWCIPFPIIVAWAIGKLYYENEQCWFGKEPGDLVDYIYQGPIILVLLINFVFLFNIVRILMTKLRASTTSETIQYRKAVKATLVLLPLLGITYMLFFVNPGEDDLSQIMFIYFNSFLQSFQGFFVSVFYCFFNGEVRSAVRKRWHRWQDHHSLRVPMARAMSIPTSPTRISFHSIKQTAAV
T3 sequence (P24387 whole entry): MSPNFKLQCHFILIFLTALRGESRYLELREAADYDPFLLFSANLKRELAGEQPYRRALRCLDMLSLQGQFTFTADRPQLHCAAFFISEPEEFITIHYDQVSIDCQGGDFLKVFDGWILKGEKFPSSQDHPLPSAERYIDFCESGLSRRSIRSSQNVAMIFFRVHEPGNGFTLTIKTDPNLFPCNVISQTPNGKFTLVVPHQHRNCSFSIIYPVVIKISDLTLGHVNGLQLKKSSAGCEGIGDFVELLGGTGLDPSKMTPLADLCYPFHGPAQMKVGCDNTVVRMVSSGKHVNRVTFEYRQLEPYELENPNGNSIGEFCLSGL

Cysteine protease ATG4B = biological target: T4, Cysteine protease ATG4B (Homo sapiens, UniProt Q9Y4P1); assay: autophagin-1 cysteine protease inhibition – biochemical, fluorescence, set 2, dose response (AID 588584); type: functional
T4 sequence (Q9Y4P1 whole entry): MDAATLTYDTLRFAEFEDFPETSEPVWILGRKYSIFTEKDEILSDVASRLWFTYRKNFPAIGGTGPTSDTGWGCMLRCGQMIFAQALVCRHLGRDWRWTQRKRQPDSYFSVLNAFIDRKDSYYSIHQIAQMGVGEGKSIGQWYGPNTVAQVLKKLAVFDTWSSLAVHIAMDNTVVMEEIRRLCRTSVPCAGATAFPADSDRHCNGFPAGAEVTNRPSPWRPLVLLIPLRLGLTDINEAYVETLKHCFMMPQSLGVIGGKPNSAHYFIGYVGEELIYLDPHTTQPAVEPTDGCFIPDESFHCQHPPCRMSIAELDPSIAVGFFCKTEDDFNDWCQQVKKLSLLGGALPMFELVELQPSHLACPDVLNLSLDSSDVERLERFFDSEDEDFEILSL

Phospholipase A2 = Phospholipase A2 (Homo sapiens, UniProt P04054); assay: phospholipase A2 activity inhibition – biochemical, set 2, counter-screen for ATG4B inhibitor project, dose response (AID 588586); type: functional
Chain of Phospholipase A2 (P04054 whole entry): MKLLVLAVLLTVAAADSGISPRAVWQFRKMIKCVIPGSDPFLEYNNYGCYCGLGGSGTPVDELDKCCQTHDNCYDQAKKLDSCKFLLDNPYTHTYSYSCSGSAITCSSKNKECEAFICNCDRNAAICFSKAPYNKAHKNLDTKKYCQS

Cytochrome P450 2D6 = Cytochrome P450 2D6 (Homo sapiens, UniProt P10635);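 also: CYP2D6 member of a cytochrome P450 panel assay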
Chain of Cytochrome P450 2D6 (P10635 whole entry): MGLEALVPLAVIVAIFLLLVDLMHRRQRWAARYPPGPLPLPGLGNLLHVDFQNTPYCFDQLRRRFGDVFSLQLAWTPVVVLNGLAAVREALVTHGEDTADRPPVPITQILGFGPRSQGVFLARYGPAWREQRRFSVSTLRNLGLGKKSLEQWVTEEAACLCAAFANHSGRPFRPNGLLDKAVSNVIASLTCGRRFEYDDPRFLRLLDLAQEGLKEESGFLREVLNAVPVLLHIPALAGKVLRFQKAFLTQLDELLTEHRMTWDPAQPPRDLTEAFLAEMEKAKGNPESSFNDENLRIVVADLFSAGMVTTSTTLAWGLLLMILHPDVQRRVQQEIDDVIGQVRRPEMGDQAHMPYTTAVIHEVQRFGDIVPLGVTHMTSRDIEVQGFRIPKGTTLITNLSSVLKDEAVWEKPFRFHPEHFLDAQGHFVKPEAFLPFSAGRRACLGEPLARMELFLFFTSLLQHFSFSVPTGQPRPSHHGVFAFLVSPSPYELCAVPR

[23] = biological target: T3, Corticotropin-releasing factor receptor 2/Corticotropin-releasing factor-binding protein; assay: activators of CRF receptor 2 with binding protein – uHTS hits, confirmation (AID 602473); type: functional; conditions: read-out: EC50_Mean
Cytochrome P450 3A4 = Cytochrome P450 3A4 (Homo sapiens, UniProt P08684);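 also: CYP3A4 tested as one member of a cytochrome P450 panel screen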
Chain of Cytochrome P450 3A4 (P08684 whole entry): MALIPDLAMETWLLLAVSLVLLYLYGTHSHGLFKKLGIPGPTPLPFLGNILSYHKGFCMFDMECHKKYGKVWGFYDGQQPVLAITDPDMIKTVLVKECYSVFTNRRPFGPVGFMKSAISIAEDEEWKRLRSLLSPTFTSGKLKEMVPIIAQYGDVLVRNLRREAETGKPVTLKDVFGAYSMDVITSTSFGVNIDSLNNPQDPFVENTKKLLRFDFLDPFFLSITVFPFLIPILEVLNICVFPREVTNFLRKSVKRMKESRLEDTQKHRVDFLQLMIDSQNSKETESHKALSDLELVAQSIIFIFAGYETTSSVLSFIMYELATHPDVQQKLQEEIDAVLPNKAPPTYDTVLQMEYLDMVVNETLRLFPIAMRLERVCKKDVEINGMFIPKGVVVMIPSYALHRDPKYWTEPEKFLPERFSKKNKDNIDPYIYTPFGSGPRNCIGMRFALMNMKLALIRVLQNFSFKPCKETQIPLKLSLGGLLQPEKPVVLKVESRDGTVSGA

[24] = T. cruzi infection blockers in NIH3T3 cells – beta-gal luminescence, NIH3T3 host cells, confirmation (AID 2630); type: functional, cell-based; conditions: Mus musculus
[25] = Luminescence Cell-Based/Microorganism Confirmation at Dose of Inhibitors of Trypanosoma cruzi Infection. [Related pubchem assays: 1885, 1968 ]; type: functional
[26] = Luminescence Cell-Based Secondary HTS screen to identify cytotoxic compounds of NIH3T3 cells. [Related pubchem assays: 1885, 1968 ]; type: functional
[27] = biological target: Dual specificity protein phosphatase 3 (Homo sapiens, UniProt P51452); assay: SAR VHR1 Fluorescent Assay for In Vitro dose response studies Set 3. [Related pubchem assays (depositor defined):AID1654, AID1661, AID1878]; type: functional
Chain of Dual specificity protein phosphatase 3 (P51452 whole entry): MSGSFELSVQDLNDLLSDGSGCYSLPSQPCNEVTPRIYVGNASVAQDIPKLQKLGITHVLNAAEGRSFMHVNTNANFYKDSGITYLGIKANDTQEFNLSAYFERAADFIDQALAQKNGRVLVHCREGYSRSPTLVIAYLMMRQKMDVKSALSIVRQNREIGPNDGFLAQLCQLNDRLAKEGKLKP

COc1ccc(CC2(CO)CCN(CC3=Cc4cc(Cl)ccc4OC3)CC2)cc1
inconclusive: EC50 [3] > 60 µM
active: AC50 [1] 1.33 µM | AC50 (INS1) 3.28 µM | AC50 [2] 7.74 µM | EC50 (HEK293 [4]) 5.44 µM | AC50 [5] 7.73 µM | IC50 [6] 1.79 µM | IC50 (HEK293 [7]) 4.31 µM | IC50 (HEK293 [8]) 3.77 µM | IC50 (HEK293 [9]) 8.64 µM | IC50 [10] 1.28 µM | EC50 [11] 1.68 µM

CN(C)CCNc1ccc2ncn3c4ccc(O)cc4c(=O)c1c23
active: AC50 (ORF 73) 6.38 µM | CC50 [12] 49.2 µM | IC50 [14] 46.8 µM | AC50 (HeLa) 11.5 µM | EC50 (HEK293 [17]) > 6.62 µM | AC50 [18] 89 µM | AC50 (Keap1/Nrf2) 3.79 µM
inactive: EC50 [13] 11.5 µM | EC50 [15] > 91.1 µM | EC50 (HEK293 [16]) > 59.6 µM

CCN(CC)C(=O)c1cn(CCOc2ccccc2)c2ccccc12
inactive: IC50 [20] > 100 µM
active: IC50 [19] 1.38 µM

CCCCCNC(=O)c1ccc2c(=O)n(CC3CCCO3)c(=O)[nH]c2c1 (stereo unspecified)
inactive: IC50 (Jurkat) > 80 µM | IC50 [21] > 80 µM

CCOc1ccc(C(=O)Nc2cnn(Cc3ccc(Cl)c(Cl)c3)c2)cc1
inactive: IC50 [22] > 47.1 µM | IC50 (Cysteine protease ATG4B) 68.1 µM | IC50 (Phospholipase A2) 79.1 µM | EC50 [23] > 53 µM
inconclusive: AC50 (Cytochrome P450 2D6) 15.8 µM | AC50 (Cytochrome P450 3A4) 22.4 µM

COc1ccccc1/C=C/C(=O)OCCCN(C)C
active: EC50 [24] 2.52 µM | EC50 [25] 2.52 µM
> 195 µM (not active): EC50 [26]

COc1cccc2sc(NC(=O)c3ccc(C(=O)c4ccccc4)cc3)nc12
inactive: IC50 [27] > 66 µM

— ChEMBL document CHEMBL1201862, “PubChem BioAssay data set” (2004)
